In the NIST ThermoML archive (doi:10.1016/j.jct.2008.12.010):

Assay: xn = mol fraction of the nth substance listed
Conditions: for speed of sound / mass density: Liquid; for speed of sound: Linear variable-path acoustic interferometer; for mass density: Vibrating tube method; for surface tension liquid-gas: Drop volume

Cc1ccc(C)cc1 [1,4-dimethylbenzene] + CCCCCCCCCC
Conditions	mass density [kg/m3]	speed of sound [m/s]	surface tension liquid-gas [mN/m]
288.15 K, x1 = 0.1092	742.78	1276.2	–
288.15 K, x1 = 0.1984	750.98	1278.7	–
288.15 K, x1 = 0.3105	762.21	1282.7	–
288.15 K, x1 = 0.3427	765.62	1284.1	–
288.15 K, x1 = 0.4919	782.82	1292.3	–
288.15 K, x1 = 0.5438	789.38	1295.8	–
288.15 K, x1 = 0.5995	796.78	1300.1	–
288.15 K, x1 = 0.7293	815.71	1312.2	–
288.15 K, x1 = 0.7829	824.32	1318.2	–
288.15 K, x1 = 0.8993	844.93	1333.7	–
288.15 K, x1 = 0.9499	854.78	1341.9	–
293.15 K, x1 = 0.1092	739.03	1256.7	–
293.15 K, x1 = 0.1984	747.15	1259	–
293.15 K, x1 = 0.3427	761.75	1264.3	–
293.15 K, x1 = 0.4919	778.88	1272.3	–
293.15 K, x1 = 0.5438	785.41	1275.7	–
293.15 K, x1 = 0.5995	792.78	1279.9	–
293.15 K, x1 = 0.7293	811.62	1291.8	–
293.15 K, x1 = 0.7829	820.21	1297.8	–
293.15 K, x1 = 0.8993	840.73	1312.9	–
293.15 K, x1 = 0.9499	850.54	1320.9	–
293.18 K, x1 = 0.3105	758.36	1262.9	–
298.15 K, x1 = 0.09726	–	–	23.21
298.15 K, x1 = 0.1092	735.23	1236.5	–
298.15 K, x1 = 0.1984	743.31	1238.7	–
298.15 K, x1 = 0.2	–	–	23.4
298.15 K, x1 = 0.2959	–	–	23.61
298.15 K, x1 = 0.3105	754.46	1242.7	–
298.15 K, x1 = 0.3427	757.83	1244	–
298.15 K, x1 = 0.4047	–	–	23.89
298.15 K, x1 = 0.4919	774.88	1251.8	–
298.15 K, x1 = 0.4998	–	–	24.23
298.15 K, x1 = 0.5374	–	–	24.37
298.15 K, x1 = 0.5438	781.38	1255.3	–
298.15 K, x1 = 0.5995	788.72	1259.3	–
298.15 K, x1 = 0.6024	–	–	24.66
298.15 K, x1 = 0.6962	–	–	25.15
298.15 K, x1 = 0.7293	807.48	1271.1	–
298.15 K, x1 = 0.7829	816.03	1276.9	–
298.15 K, x1 = 0.8025	–	–	25.73
298.15 K, x1 = 0.8914	–	–	26.33
298.15 K, x1 = 0.8993	836.47	1291.9	–
298.15 K, x1 = 0.9499	846.25	1299.8	–
298.15 K, x1 = 0.9503	–	–	26.79
303.15 K, x1 = 0.1092	731.39	1216.6	–
303.15 K, x1 = 0.1984	739.42	1218.8	–
303.15 K, x1 = 0.3105	750.53	1222.5	–
303.15 K, x1 = 0.3427	753.87	1223.9	–
303.15 K, x1 = 0.4919	770.85	1231.6	–
303.15 K, x1 = 0.5438	777.33	1235	–
303.15 K, x1 = 0.5995	784.63	1239	–
303.15 K, x1 = 0.7293	803.32	1250.6	–
303.15 K, x1 = 0.7829	811.82	1256.3	–
303.15 K, x1 = 0.8993	832.18	1271.3	–
303.15 K, x1 = 0.9499	841.92	1278.9	–
